EPA's ToxValDB 9.5 (doi:10.2903/j.efsa.2016.4374)
In brackets after ≈: the same amount, converted by molar mass.

Key:
Typhlodromus pyri = assay: LR50; higher = less toxic; conditions: not reported; mortality
Tagia sp. = conditions: chronic/long-term; duration: 56 days; reproduction
Myriophyllum spicatum = conditions: acute; growth
Anas platyrhynchos = conditions: acute; oral; unspecified; mortality
Pleurozium sp. = conditions: acute; growth
Danio rerio = conditions: chronic; growth
Apis mellifera = conditions: acute, duration: 48 hours, mortality
Daphnia magna = conditions: chronic/long-term; reproduction
Hypoaspis aculeifer = conditions: chronic/long-term; duration: 14 days; mortality
Cyprinus carpio = conditions: acute; mortality
Canidae = conditions: subchronic; duration: 90 days; oral; Dog Other; organ weight
Folsomia candida = conditions: chronic/long-term; duration: 28 days; mortality
Bibionidae = conditions: chronic/long-term; growth

CCOC1Oc2ccc(OS(C)(=O)=O)cc2C1(C)C (centres undefined) [Ethofumesate] showed an LR50 (Typhlodromus pyri) of over 1000 g/ha, an NOEC (Tagia sp.) of 12.5 mg/kg and an NOEC (Myriophyllum spicatum) of 0.25 mg/L. The LD50 (Anas platyrhynchos) was 3780 mg/kg-day, the NOEC (Pleurozium sp.) was 9.68 mg/L and the NOEC (Danio rerio) was 0.156 mg/L. The LD50 (Rattus norvegicus; acute, oral, mortality) was over 5000 mg/kg-day, the NOAEL (Rattus norvegicus; chronic, duration: 2 years, oral, F, organ weight) was 101 mg/kg-day and the NOAEL (Rattus norvegicus; reproduction developmental, body weight) was 60.9 mg/kg-day. The LD50 (Colinus virginianus; acute, oral, mortality) was 3780 mg/kg-day, the NOEL (Colinus virginianus; reproduction developmental) was 265 mg/kg-day and the LD50 (Apis mellifera; dermal) was over 50 µg/piece. It also gave an LD50 (Apis mellifera; oral, unspecified) of over 50 µg/piece, an NOEC (Daphnia magna) of 0.25 mg/L and an NOEC (Hypoaspis aculeifer) of 22.1 mg/kg. It also gave an LC50 (Cyprinus carpio) of 10.9 µg/mL (≈ 38.1 µM), an NOAEL (Canidae) of 250 mg/kg-day and an NOEC (Folsomia candida) of 13.3 mg/kg. The NOEC (Bibionidae) was 3.82 mg/L.
